We go through 19 compounds from PubChem BioAssay (NCI).

Molecules are shown by their SMILES.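 All cell lines were grown in 96-well plates and treated with compound for 48 hours. At the GI50, growth is halved. TGI: total growth inhibition.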 Some results are limits rather than exact numbers.

The first assay relates to CAKI-1 renal. As to the kind of experiment: NCI anticancer screen, dose series, 48 h.
Regarding `CN(C(=O)c1ccc(C(F)(F)F)cc1)c1ccc(Oc2ccc3c(c2)cc(C(=O)N2CCN(Cc4ccc(OC(F)F)cc4)CC2)n3C)nc1`, the GI50 was 2.27 µM and the TGI is greater than 100 µM.
Compound `Nc1ncnc2c1nnn2C1OC(CO)C(O)C1O` (stereo not drawn) gave a TGI of 2.88 µM.
As to `NC1(C(=O)OCc2ccccc2)CCCC1`, the TGI is 47.5 µM.
The same measure, in the same setting: next, `O=C(/C=C/c1ccc(Cl)cc1)c1ccc(Nc2ccnc3cc(Cl)ccc23)cc1`: greater than 100 µM; `COc1cc(C2c3cc4c(cc3OC(C)(O)C2C)OCO4)cc(OC)c1OC` (stereo not drawn): greater than 100 µM; `COc1cc2c(c(OC)c1OC)-c1ccc(OC)c(=O)cc1C(NC(=O)c1ccc(N=[N+]=[N-])cc1)CC2` (stereo not drawn): 0.243 µM.
On to `CC(=O)[C@@]12O[C@@H]1CC1C3CCC4=CC(O)CCC4(C)C3CCC12C` (stereo partly drawn), for which the GI50 was greater than 100 µM and the TGI was greater than 100 µM.
Regarding `Cc1ccccc1S(=O)(=O)OC1NS(=O)(=O)c2ccccc21` (stereo not drawn), the TGI is greater than 100 µM.
For the compound `COc1cc2c3c(n(C)c(=O)c2cc1OC)-c1cc2c(cc1/C3=C\CCCN)OCO2`, the GI50 was 1.99 µM and the TGI is 8.62 µM.
Turning to `COc1cc(/C=C/c2cc(O)c(C(C)=O)c(O)c2)cc2c1O[C@]1(C)CC[C@@H](O)C(C)(C)[C@H]1C2`, the GI50 is 4.12 µM and the TGI was greater than 100 µM.
The compound `OC(c1nc2ccccc2[nH]1)C(O)C(O)C(O)c1nc2ccccc2[nH]1` (stereo not drawn) gave a TGI greater than 100 µM.
`Cc1cc(O)c(/C=N/C(=S)NCc2ccccc2)c(=O)o1` came in with a TGI greater than 100 µM.
Take `O=C(CSc1ccc(Cl)cc1)Nc1ccc(-c2nc3ccccc3s2)c(Cl)c1`: the GI50 was 2.53 µM and the TGI is 10.3 µM.
As to `COc1cc2c3c(n(C)c(=O)c2cc1OC)-c1cc2c(cc1/C3=C\CCN)OCO2`, the GI50 was 0.112 µM and the TGI was 3.02 µM.

The subject of another assay is BT-549 breast. Briefly: NCI anticancer screen, dose series, 48 h.
Take `CN(C(=O)c1ccc(C(F)(F)F)cc1)c1ccc(Oc2ccc3c(c2)cc(C(=O)N2CCN(Cc4ccc(OC(F)F)cc4)CC2)n3C)nc1`: the GI50 was 6.71 µM and the TGI is greater than 100 µM.
In the case of `Cc1cc(-c2ccc3nc(C4CCOCC4)n(CCOC(F)(F)F)c3c2)cn(C)c1=O`, the GI50 is 3.99 µM and the TGI is greater than 80.4 µM.
For the compound `Nc1ncnc2c1nnn2C1OC(CO)C(O)C1O` (stereo not drawn), the GI50 was 0.496 µM and the TGI stood at 5.75 µM.
In turn, `NC1(C(=O)OCc2ccccc2)CCCC1` yielded a TGI of 33.8 µM.
In the case of `O=C(/C=C/c1ccc(Cl)cc1)c1ccc(Nc2ccnc3cc(Cl)ccc23)cc1`, the GI50 is 29.3 µM and the TGI is greater than 100 µM.
With `COc1cc(C2c3cc4c(cc3OC(C)(O)C2C)OCO4)cc(OC)c1OC` (stereo not drawn), the TGI was greater than 100 µM.
`COc1cc2c(c(OC)c1OC)-c1ccc(OC)c(=O)cc1C(NC(=O)c1ccc(N=[N+]=[N-])cc1)CC2` (stereo not drawn) returned a TGI greater than 100 µM.
As to `C=C1C(=O)O[C@H]2[C@H]1CC/C(COC(=O)c1c[nH]c3ccccc13)=C\CC[C@@]1(C)O[C@@H]21`, the GI50 is 0.175 µM and the TGI came to 0.414 µM.
As for `CC(=O)[C@@]12O[C@@H]1CC1C3CCC4=CC(O)CCC4(C)C3CCC12C` (stereo partly drawn), the GI50 was 27.8 µM and the TGI was greater than 100 µM.
For `CCN1CCN(c2nc(C)cc(N(CCNc3ccnc4cc(Cl)ccc34)Cc3ccc4c(c3)OCO4)n2)CC1`, the GI50 is 1.74 µM and the TGI came to 3.73 µM.
`C=C(Br)C(C)(Br)CCC(Br)C(C)(C)Cl` (stereo not drawn) registered a TGI of 52.6 µM.
`Cc1ccccc1S(=O)(=O)OC1NS(=O)(=O)c2ccccc21` (stereo not drawn) showed a TGI greater than 100 µM.
With `COc1cc2c3c(n(C)c(=O)c2cc1OC)-c1cc2c(cc1/C3=C\CCCN)OCO2`, the GI50 is 15.5 µM and the TGI came out at 38.9 µM.
As for `COc1ccc(-c2nnc(COc3ccc(NC(=O)Nc4cc(C(F)(F)F)cc(C(F)(F)F)c4)cc3F)o2)cc1`, the GI50 was 2.54 µM and the TGI was determined as 6.05 µM.
For `COc1cc(/C=C/c2cc(O)c(C(C)=O)c(O)c2)cc2c1O[C@]1(C)CC[C@@H](O)C(C)(C)[C@H]1C2`, in that order: 3.03 µM and 27.6 µM.
For the compound `OC(c1nc2ccccc2[nH]1)C(O)C(O)C(O)c1nc2ccccc2[nH]1` (stereo not drawn), the TGI was greater than 100 µM.
Same read-out and setting: next, `Cc1cc(O)c(/C=N/C(=S)NCc2ccccc2)c(=O)o1`: greater than 100 µM.
As to `O=C(CSc1ccc(Cl)cc1)Nc1ccc(-c2nc3ccccc3s2)c(Cl)c1`, the GI50 was 2.76 µM and the TGI came to 8.53 µM.
In the case of `COc1cc2c3c(n(C)c(=O)c2cc1OC)-c1cc2c(cc1/C3=C\CCN)OCO2`, the GI50 was 2.13 µM and the TGI stood at 46.1 µM.

The test system of the next assay is HOP-62 NSCLC. As to the kind of experiment: NCI anticancer screen, dose series, 48 h.
For `CN(C(=O)c1ccc(C(F)(F)F)cc1)c1ccc(Oc2ccc3c(c2)cc(C(=O)N2CCN(Cc4ccc(OC(F)F)cc4)CC2)n3C)nc1`, the TGI is greater than 100 µM.
Consider `Nc1ncnc2c1nnn2C1OC(CO)C(O)C1O` (stereo not drawn), for which the TGI was determined as 5.78 µM.
As to `NC1(C(=O)OCc2ccccc2)CCCC1`, the TGI came to 46.7 µM.
As to `O=C(/C=C/c1ccc(Cl)cc1)c1ccc(Nc2ccnc3cc(Cl)ccc23)cc1`, the GI50 was 99.2 µM and the TGI is greater than 100 µM.
In turn, `COc1cc(C2c3cc4c(cc3OC(C)(O)C2C)OCO4)cc(OC)c1OC` (stereo not drawn) registered a TGI greater than 100 µM.
As for `COc1cc2c(c(OC)c1OC)-c1ccc(OC)c(=O)cc1C(NC(=O)c1ccc(N=[N+]=[N-])cc1)CC2` (stereo not drawn), the TGI was greater than 95.1 µM.
Take `C=C1C(=O)O[C@H]2[C@H]1CC/C(COC(=O)c1c[nH]c3ccccc13)=C\CC[C@@]1(C)O[C@@H]21`: the GI50 is 0.825 µM and the TGI turned out to be 2.41 µM.
Regarding `CCN1CCN(c2nc(C)cc(N(CCNc3ccnc4cc(Cl)ccc34)Cc3ccc4c(c3)OCO4)n2)CC1`, the GI50 is 2.21 µM and the TGI turned out to be 11.5 µM.
Turning to `C=C(Br)C(C)(Br)CCC(Br)C(C)(C)Cl` (stereo not drawn), the TGI came out at 39.4 µM.
As to `Cc1ccccc1S(=O)(=O)OC1NS(=O)(=O)c2ccccc21` (stereo not drawn), the TGI was greater than 100 µM.
Turning to `COc1cc2c3c(n(C)c(=O)c2cc1OC)-c1cc2c(cc1/C3=C\CCCN)OCO2`, the GI50 is 3.64 µM and the TGI was found to be 26.6 µM.
For `COc1ccc(-c2nnc(COc3ccc(NC(=O)Nc4cc(C(F)(F)F)cc(C(F)(F)F)c4)cc3F)o2)cc1`, in that order: 2.69 µM and 7.12 µM.
